Legend:
[1] = test system: intrinsic pathway; assay: Plasma coagulation: activated partial thromboplastin time (APTT); set-up: species or system Human
Experimental: (§1) The impact of nanoemulsion formulations on plasma coagulation was also assessed. Human blood from three donors was collected by venepuncture into tubes anti-coagulated with sodium citrate; blood was used within one hour of collection. Test plasma was prepared by centrifuging blood at 2500×g, at 21° C., for 10 minutes with the resultant plasma collected and pooled. Pooled plasma was stable at room temperature for 8 hours. Nanoemulsion samples were prepared at 10× the required final concentration to accommodate dilution when added to test plasma. Concentrations and subsequent dilutions were based on the concentration of Efavirenz contained within the samples with dilutions of blank nanoemulsion diluted in the same fashion. Final concentrations tested were 40 μg/mL, 4 μg/mL, 0.8 μg/mL and 0.16 μg/mL. […]
(§2) Cuvettes were placed into A, B, C and D test rows on the coagulometer and one metal ball added into each cuvette (warmed for at least 3 minutes prior to use). […] Once incubation time was complete coagulation reagent was added to each cuvette and coagulation time recorded. Percentage coefficient of variation was calculated for each control and test samples according to the following formula: % CV=SD/Mean×100%. […] Data was expressed as a percentage of the coagulation time recorded for plasma with no nanomaterial present (plasma only control).

[2] = Transcellular permeation assay (Caco-2 transwell); assay type: in vitro ADME; conditions: human
Experimental: (§3) Caco-2 cells were seeded at a density of 35,000 cells per well in the apical chamber of a 24 well Corning® HTS® transwell plate, and left to adhere for 24 hours. After this time, culture media was replenished by removal with an aspirator, also removing those cells that had not adhered. Culture media used was DMEM supplemented with 15% fetal bovine serum, which was continually replenished every other day for a three-week period.
(§4) In different wells the apical or basolateral chambers (donor chambers) were loaded with drug or nanoemulsion containing media, with the opposite chambers (acceptor chambers) of those wells being filled with fresh drug-free media. Samples were taken from both apical and basolateral chambers from all wells at 1, 2, and 24 hour time periods. Samples were then immediately frozen at −40° C. for subsequent batch analysis via high performance liquid chromatography to determine the concentration of the drug in the sample.
(§5) The apparent permeability (Papp) was calculated using the following equation: Papp=((A/T)*(V))/(S*0.3).
(§6) Where A is the concentration in the sample, T is the time in seconds at which the sample was collected, V is the total volume of sample contained in the chamber being sampled, S is the initial starting concentration of the drug and 0.3 is the surface area in cm^2 of the transwell insert on which the Caco-2 cells are grown.

[3] = test system: Caco-2 cells; assay: Transcellular permeation assay (Caco-2 transwell); assay type: in vitro ADME; conditions: 10 μM
Experimental: as §3, §4, §5, §6

[4] = test system: extrinsic pathway; assay: Plasma coagulation: prothrombin time (PT); set-up: species or system Human; conditions: 37° C., 30 minutes, 0.16-40 μg/mL
Experimental: as §1, §2

[5] = test system: final common pathway; assay: Plasma coagulation: thrombin time (TT); set-up: species or system Human; conditions: 37° C., 30 minutes, 0.16-40 μg/mL
Experimental: as §1, §2

[6] = Solubility of drug in castor oil; assay type: physicochemical
Experimental: Non-limiting examples of some suitable drugs include for example the antiretroviral drugs Lopinavir (LPV) and Efavirenz (EFV), and the antibiotics Rifampicin and Erythromycin. Practically, approximately 50 mg/ml Efavirenz or 25 mg/ml Lopinavir can be dissolved in castor oil. Stock solutions of drug dissolved in castor oil were produced (50 mg/ml of Efavirenz in castor oil, or 25 mg/ml of Lopinavir in the same oil).

[7] = Caco-2, 2 hours, read-out: Papp apical to basolateral

SMILES	impact on APTT coagulation time [1]	Papp A→B at 2 h, 10 μM [2, 7]	Papp A→B at 24 h, 10 μM ([2]; Caco-2, 24 hours, read-out: Papp apical to basolateral)	Papp basolateral to apical ([3]; 1 hour)	Papp basolateral to apical ([3]; 2 hours)	impact on prothrombin time (PT) [4]	impact on thrombin time (TT) [5]	amount that can be dissolved in castor oil [6]	Papp A→B at 1 h, 10 μM ([2]; Caco-2, 1 hour, read-out: Papp apical to basolateral)	Papp B→A at 1 h, 10 μM ([2]; Caco-2, 1 hour, read-out: Papp basolateral to apical)	Papp B→A at 2 h, 10 μM ([2]; Caco-2, 2 hours, read-out: Papp basolateral to apical)
O=C1Nc2ccc(Cl)cc2[C@@](C#CC2CC2)(C(F)(F)F)O1 [Efavirenz]	did not impact on coagulation time at all	8.2 ×10⁻⁶ cm/s	0.7 ×10⁻⁶ cm/s	increased compared to EFV nanoemulsion	increased compared to EFV nanoemulsion	No impact	No impact	approximately 50 mg/ml	–	–	–
Cc1cccc(C)c1OCC(=O)N[C@@H](Cc1ccccc1)[C@@H](O)C[C@H](Cc1ccccc1)NC(=O)[C@H](C(C)C)N1CCCNC1=O [Lopinavir]	–	2.7 ×10⁻⁶ cm/s	–	–	–	–	–	~25 mg/mL	8.4 ×10⁻⁶ cm/s	9.3 ×10⁻⁶ cm/s	13 ×10⁻⁶ cm/s

From patent US10463618B2, “Nanoemulsions” (The University of Liverpool, priority 2015, dated 2019)
